Values after ≈ are worked out from the molar mass of the structure shown.

The results in this text go back to paper PMC7570544, “Biological Activities and ADMET-Related Properties of Novel Set of Cinnamanilides” (Molecules, 2020).

Series [1] concerns methicillin-resistant Staphylococcus aureus (MRSA) SA 630. Kind of series: In vitro antibacterial evaluation, broth microdilution MIC, MRSA isolate SA 630. In kind it is cell-based. As to conditions: clinical isolate MRSA SA 630. In general terms: Dilution methods test growth across graded concentrations, often in twofold steps.
In series [2] the test system is methicillin-resistant Staphylococcus aureus (MRSA) 63718. Briefly: In vitro antibacterial evaluation, broth microdilution MIC, MRSA isolate 63718. It counts as cell-based. The note with it: clinical isolate MRSA 63718.
For series [3] the following is noted: RP-HPLC, 72:28 MeOH:H2O.
In series [4] the test system is Staphylococcus aureus ATCC 29213. Kind of series: In vitro antibacterial evaluation, broth microdilution MIC, reference strain. It counts as cell-based. The note with it: Staphylococcus aureus, ATCC29213; S. aureus ATCC 29213.
Series [5] relates to THP1-Blue™ NF-κB cell line. Briefly: In vitro cell viability assay (WST-1). It counts as cell-based. The note with it: Homo sapiens; THP1-Blue NF-κB cells, 24 h incubation, WST-1, mean ± SEM, n = 6; read-out: Tox IC50 ± SEM. On the procedure:
The cytotoxic effect of the tested compounds was specified on THP1-Blue™ NF-κB cell line (Invivogen; San Diego, CA, USA), as described previously. […] The final concentration of DMSO was 0.1% (v/v) in each well. The viability analysis was performed after 24 h incubation with the tested substances using the WST-1 Cell Proliferation Reagent kit (Roche Diagnostics, Basel, Switzerland) according to the manufacturer’s manual. […] The IC50 values were calculated by four-parameter logistic (4PL) analysis from obtained viability curves by GraphPad Prism 8.0.1 (San Diego, CA, USA) software.
(In general: Tetrazolium dyes change colour on reduction, which living cells bring about.)

Series [6] in a line: Lipophilicity determination by RP-TLC. In kind it is physicochemical. On the set-up: key to RM (MeOH:H2O): RM = log(1/RF - 1), from RP-18 TLC. The note with it: for RM (MeOH:H2O): 72:28 MeOH:H2O; for RM (pH 7.4): 72:28 MeOH:NaOAc buffer (pH 7.4). The protocol:
RM values were determined from the RP-18 TLC measurements. […] The volatiles were carefully evaporated, and the plate was developed by MeOH (100%) or MeOH: H2O-HPLC (72:28 v/v) or MeOH: NaOAc buffer, pH 7.4 (72:28 v/v). After drying, the spots were visualized under UV (λ = 365 nm). RM data were obtained from equation: RM = log(1/RF-1). Each experiment was repeated three times.

Series [7] has as its system Mycobacterium tuberculosis H37Ra/ATCC 25177. Kind of series: In vitro antimycobacterial evaluation. In kind it is cell-based. As to conditions: M. tuberculosis H37Ra. An excerpt:
Isoniazid (Sigma) was used as the standard.

With `CC1(C)S[C@@H]2[C@H](NC(=O)[C@H](N)c3ccccc3)C(=O)N2[C@H]1C(=O)O` [AMP, ampicillin, reference compound], the minimum inhibitory concentration (MIC) in series [1] and in series [2] was 45.8 µM (≈ 16 µg/mL) each time.

Regarding `O=C(/C=C/c1ccccc1)Nc1cc(F)c(F)c(F)c1` [Compound 3, (2E)-3-Phenyl-N-(3,4,5-trifluorophenyl)prop-2-enamide], the Logk in series [3] was 0.4893. The MIC (usually the least concentration at which growth counts as inhibited) in series [1] was > 924 µM; in series [4], 462 µM (≈ 128 µg/mL); in series [2], > 924 µM; in series [7], > 462 µM. Further, the values for the chromatographic logD in “physchem” (pH 6.5) and in the series “physchem” (pH 7.4) were 0.527 and 0.549, respectively. Besides, the IC50 (in general, the concentration that inhibits the measured activity by half) in series [5] is > 20 µM. Further, the “RM (MeOH:H2O)” value in series [6] is listed as 0.6074. For the same compound, in series [6], the “RM (pH 7.4)” value is 0.5495. The “RM (100% MeOH)” value in series [6] is listed as −0.4206.

Take `O=C(/C=C/c1ccccc1)Nc1cc(Cl)c(Cl)c(Cl)c1` [Compound 6, (2E)-3-Phenyl-N-(3,4,5-trichlorophenyl)prop-2-enamide]: the Logk in series [3] is on record as 0.9671. Besides, the MIC was > 790 µM in series [1], > 790 µM in series [4], > 790 µM in series [2] and > 395 µM in series [7]. For the same compound, the chromatographic logD (usually lipophilicity estimated from chromatographic retention) in “physchem” (pH 6.5) came to 0.99; in “physchem” (pH 7.4), 1.01. In series [5], the IC50 was > 20 µM. Moreover, in series [6], the “RM (MeOH:H2O)” value was found to be 1.0852. For the same compound, in series [6], the “RM (pH 7.4)” value was determined as 1.1306. The “RM (100% MeOH)” value in series [6] is given as −0.1870.

In series [3], `O=C(/C=C/c1ccccc1)Nc1ccc(Br)cc1Br` [Compound 7, (2E)-N-(2,4-Dibromophenyl)-3-phenylprop-2-enamide] had a Logk of 0.6152. The MIC in series [1] is > 677 µM; in series [4], > 677 µM; in series [2], > 677 µM; in series [7], > 339 µM. For the same compound, the chromatographic logD in “physchem” (pH 6.5) was determined as 0.652; in the series “physchem” (pH 7.4) it was 0.67. In addition, the IC50 in series [5] was > 20 µM. The “RM (MeOH:H2O)” value in series [6] stood at 0.7331. For the same compound, in series [6], the “RM (pH 7.4)” value came out at 0.7295. In series [6], the “RM (100% MeOH)” value was −0.3098.

Consider `O=C(/C=C/c1ccccc1)Nc1cc(Cl)ccc1F` [Compound 8, (2E)-N-(5-Chloro-2-fluorophenyl)-3-phenylprop-2-enamide], for which the Logk in series [3] was determined as 0.3692. Moreover, the MIC was > 931 µM in series [1], 931 µM (≈ 257 µg/mL) in series [4], > 931 µM in series [2] and > 465 µM in series [7]. For the same compound, the figures for the chromatographic logD in the series “physchem” (pH 6.5) and in “physchem” (pH 7.4) were 0.415 and 0.433, respectively. For the same compound, in series [5], the IC50 is > 20 µM. The “RM (MeOH:H2O)” value in series [6] was found to be 0.5411. Further, the “RM (pH 7.4)” value in series [6] stood at 0.5495. Moreover, the “RM (100% MeOH)” value in series [6] is given as −0.4711.

Consider `O=C(/C=C/c1ccccc1)Nc1ccc(Br)c(F)c1` [Compound 9, (2E)-N-(4-Bromo-3-fluorophenyl)-3-phenylprop-2-enamide], for which the Logk in series [3] came out at 0.5025. The MIC in series [1] is 805 µM (≈ 258 µg/mL); in series [4], > 805 µM; in series [2], > 805 µM; in series [7], > 403 µM. The chromatographic logD in the series “physchem” (pH 6.5) was 0.541; in the series “physchem” (pH 7.4), 0.56. Moreover, in series [5], the IC50 is > 20 µM. Also, the “RM (MeOH:H2O)” value in series [6] is 0.6797. The “RM (pH 7.4)” value in series [6] came to 0.6895. The “RM (100% MeOH)” value in series [6] is given as −0.4081.

On to `O=C(/C=C/c1ccccc1)Nc1ccc(Br)c(Cl)c1` [Compound 11, (2E)-N-(4-Bromo-3-chlorophenyl)-3-phenylprop-2-enamide], for which the Logk in series [3] is on record as 0.6611. The MIC in series [1] was 192 µM (≈ 64.6 µg/mL); in series [4], > 766 µM; in series [2], 192 µM (≈ 64.6 µg/mL); in series [7], > 383 µM. The figures for the chromatographic logD in the series “physchem” (pH 6.5) and in the series “physchem” (pH 7.4) were 0.691 and 0.713, respectively. For the same compound, the IC50 in series [5] came out at 6.5 ± 1 µM. Further, in series [6], the “RM (MeOH:H2O)” value is on record as 0.8388. Further, the “RM (pH 7.4)” value in series [6] is listed as 0.8181. Further, the “RM (100% MeOH)” value in series [6] is on record as −0.3376.

Take `O=C(/C=C/c1ccccc1)Nc1ccc(Cl)cc1Br` [Compound 12, (2E)-N-(2-Bromo-4-chlorophenyl)-3-phenylprop-2-enamide]: the Logk in series [3] came out at 0.5476. Moreover, the MIC in series [1] was > 766 µM; in series [4], > 766 µM; in series [2], > 766 µM; in series [7] it was > 383 µM. Also, the chromatographic logD in “physchem” (pH 6.5) is 0.586; in the series “physchem” (pH 7.4) it was 0.606. In addition, the concentration for half-maximal inhibition (IC50) in series [5] was > 20 µM. Besides, the “RM (MeOH:H2O)” value in series [6] came to 0.6553. The “RM (pH 7.4)” value in series [6] was 0.6484. Also, the “RM (100% MeOH)” value in series [6] is −0.4072.

`O=C(/C=C/c1ccccc1)Nc1ccc(Cl)cc1C(F)(F)F` [Compound 15, (2E)-N-[4-Chloro-2-(trifluoromethyl)phenyl]-3-phenylprop-2-enamide]: the Logk in series [3] came out at 0.4113. The MIC was > 788 µM in series [1], > 788 µM in series [4], > 788 µM in series [2] and > 394 µM in series [7]. The chromatographic logD came to 0.454 in the series “physchem” (pH 6.5) and 0.474 in “physchem” (pH 7.4). Besides, the IC50 in series [5] was > 20 µM. For the same compound, the “RM (MeOH:H2O)” value in series [6] was 0.5305. Also, the “RM (pH 7.4)” value in series [6] was found to be 0.3219. For the same compound, the “RM (100% MeOH)” value in series [6] is reported as −0.6102.

As for `O=C(/C=C/c1ccccc1)Nc1ccc(Br)cc1C(F)(F)F` [Compound 16, (2E)-N-[4-Bromo-2-(trifluoromethyl)phenyl]-3-phenylprop-2-enamide], the Logk in series [3] amounted to 0.4683. In addition, the MIC in series [1] is > 696 µM; in series [4], > 696 µM; in series [2] it was > 696 µM; in series [7], > 348 µM. Besides, the chromatographic logD was 0.51 in the series “physchem” (pH 6.5) and 0.532 in the series “physchem” (pH 7.4). Besides, in series [5], the IC50 is > 20 µM. Besides, the “RM (MeOH:H2O)” value in series [6] is on record as 0.5730. In addition, the “RM (pH 7.4)” value in series [6] was 0.4273. In addition, the “RM (100% MeOH)” value in series [6] is recorded as −0.5624.

In series [3], `O=C(/C=C/c1ccccc1)Nc1ccc([N+](=O)[O-])cc1C(F)(F)F` [Compound 17, (2E)-N-[4-Nitro-2-(trifluoromethyl)phenyl]-3-phenylprop-2-enamide] returned a Logk of 0.3794. Moreover, the MIC was > 762 µM in series [1], > 762 µM in series [4], > 762 µM in series [2] and > 381 µM in series [7]. Besides, the chromatographic logD in “physchem” (pH 6.5) was 0.399; in the series “physchem” (pH 7.4) it was 0.443. In addition, the IC50 in series [5] was > 20 µM. Besides, in series [6], the “RM (MeOH:H2O)” value is on record as 0.4998. For the same compound, in series [6], the “RM (pH 7.4)” value worked out at 0.4311. Moreover, the “RM (100% MeOH)” value in series [6] is recorded as −0.5633.

In series [3], `O=C(/C=C/c1ccccc1)Nc1c(Br)cc(C(F)(F)F)cc1Br` [Compound 19, (2E)-N-[2,6-Dibromo-4-(trifluoromethyl)phenyl]-3-phenylprop-2-enamide] returned a Logk of 0.4321. The MIC in series [1] is > 574 µM; in series [4], > 574 µM; in series [2] it was > 574 µM; in series [7], > 287 µM. Also, the chromatographic logD is 0.473 in “physchem” (pH 6.5) and 0.494 in the series “physchem” (pH 7.4). For the same compound, the half-maximal inhibitory concentration (IC50) in series [5] was > 20 µM. In addition, in series [6], the “RM (MeOH:H2O)” value is given as 0.5301. The “RM (pH 7.4)” value in series [6] is 0.3733. The “RM (100% MeOH)” value in series [6] is −0.5206.

With `NNC(=O)c1ccncc1` [INH, isoniazid, reference compound], the MIC in series [7] amounted to 36.6 µM (≈ 5.02 µg/mL).
